In ChEMBL document CHEMBL1201862, “PubChem BioAssay data set” (2004):
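Following 48 hours of exposure in 96-well plates, responses at five concentrations were used to interpolate endpoints linearly. GI50 = concentration required for 50% inhibition of growth.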 Active and inactive are the calls of the source. No stated cut-off is given here; in the data, active = GI50 up to about 1.1 µM and inactive = higher.

How the values were obtained:
Test in all cases: growth of human tumour cells (NCI), 48 h
CAKI-1 = test system: CAKI-1
CCRF-CEM = test system: CCRF-CEM
HL-60 = test system: HL-60
KM12 = test system: KM12
MOLT-4 = test system: MOLT-4
NCI-H226 = test system: NCI-H226
NCI-H460 = test system: NCI-H460
OVCAR-3 = test system: OVCAR-3
RPMI-8226 = test system: RPMI-8226
SF-268 = test system: SF-268
SK-MEL-28 = test system: SK-MEL-28
SK-MEL-2 = test system: SK-MEL-2
SK-MEL-5 = test system: SK-MEL-5
SW-620 = test system: SW-620
TK-10 = test system: TK-10
U-251 = test system: U-251
UO-31 = test system: UO-31
DU-145 = test system: DU-145
MDA-MB-231 = test system: MDA-MB-231
PC-3 = test system: PC-3

Measured: GI50

CCCCCC(=O)N[C@H]1CCc2cc(O)c(O)c(O)c2-c2ccc(SC)c(=O)cc21
inactive: CAKI-1 28.3 µM | CCRF-CEM 23.2 µM | HL-60 20.5 µM | KM12 39.6 µM | MOLT-4 27.8 µM | NCI-H226 28.2 µM | NCI-H460 38.4 µM | OVCAR-3 35.2 µM | RPMI-8226 70.5 µM | SF-268 38.7 µM | SK-MEL-28 48.3 µM | SK-MEL-2 33 µM | SK-MEL-5 28.4 µM | SW-620 17.8 µM | TK-10 > 100 µM | U-251 27.9 µM | UO-31 > 77.6 µM

Cc1ccc(NC(=O)C2C3CCC(O3)C2C(=O)O)cc1 (configuration not stated)
inactive: CAKI-1 > 100 µM | CCRF-CEM > 44.8 µM | HL-60 > 40.2 µM | KM12 > 100 µM | MOLT-4 > 87.9 µM | NCI-H226 56.5 µM | NCI-H460 > 71.4 µM | OVCAR-3 > 52.2 µM | RPMI-8226 39.6 µM | SF-268 > 53.2 µM | SK-MEL-28 > 75 µM | SK-MEL-2 64.9 µM | SK-MEL-5 > 75 µM | SW-620 > 22.3 µM | TK-10 > 100 µM | U-251 43.1 µM | UO-31 > 100 µM

C=CCCCC(C#N)(c1ccccc1)N1CCCC1 (configuration not stated)
inactive: CAKI-1 > 100 µM | CCRF-CEM > 100 µM | HL-60 > 100 µM | KM12 > 100 µM | MOLT-4 > 100 µM | NCI-H226 > 100 µM | NCI-H460 > 100 µM | OVCAR-3 > 100 µM | RPMI-8226 > 100 µM | SF-268 > 100 µM | SK-MEL-28 > 100 µM | SK-MEL-2 > 100 µM | SK-MEL-5 > 100 µM | SW-620 > 100 µM | TK-10 > 100 µM | U-251 > 100 µM | UO-31 > 100 µM

Cc1cccc(C(C)C)c1NC(=O)CCl
inactive: CAKI-1 27.9 µM | CCRF-CEM 30.5 µM | HL-60 39.9 µM | KM12 55.7 µM | MOLT-4 63.7 µM | NCI-H226 > 100 µM | NCI-H460 64.6 µM | OVCAR-3 19.1 µM | RPMI-8226 86.7 µM | SF-268 38 µM | SK-MEL-28 > 100 µM | SK-MEL-2 75.5 µM | SK-MEL-5 91.4 µM | SW-620 39.6 µM | TK-10 > 10 µM | U-251 40.7 µM | UO-31 > 100 µM

Cn1c(=O)c2c3ccccc3c(C(=O)c3ccccc3)n2c2ccccc21
inactive: CAKI-1 > 26.8 µM | CCRF-CEM 9.82 µM | HL-60 4.65 µM | KM12 2.44 µM | MOLT-4 3.94 µM | NCI-H226 > 56.1 µM | NCI-H460 3.48 µM | OVCAR-3 2.94 µM | RPMI-8226 3.55 µM | SF-268 20 µM | SK-MEL-28 17.8 µM | SK-MEL-2 15.5 µM | SK-MEL-5 6.08 µM | SW-620 5.78 µM | TK-10 > 43.7 µM | U-251 18.9 µM | UO-31 > 52.7 µM

C[C@@H]1CC[C@]2(C(=O)O)CC[C@]3(C)C(=CC[C@@H]4[C@@]5(C)CC[C@H](O)C(C)(C)[C@@H]5CC[C@]43C)[C@@H]2[C@]1(C)O [POMOLIC ACID]
inactive: CAKI-1 14 µM | CCRF-CEM 10.3 µM | DU-145 8.97 µM | HL-60 4.35 µM | KM12 12.4 µM | MDA-MB-231 8.79 µM | MOLT-4 4.86 µM | NCI-H460 5.41 µM | OVCAR-3 18.6 µM | RPMI-8226 16.3 µM | SF-268 17.1 µM | SK-MEL-28 13.6 µM | SK-MEL-2 17.1 µM | SW-620 21.9 µM | TK-10 14.5 µM | U-251 14.1 µM | UO-31 11.3 µM

CC(C)NC(=O)OCc1c(COC(=O)NC(C)C)n(C)c2c1ccc1cc(Cl)c(Cl)cc12
inactive: CAKI-1 2.09 µM | CCRF-CEM 3.33 µM | MDA-MB-231 12.7 µM | MOLT-4 3.97 µM | NCI-H226 3.78 µM | NCI-H460 3.41 µM | OVCAR-3 16.6 µM | PC-3 14.9 µM | RPMI-8226 10.3 µM | SF-268 13.8 µM | SK-MEL-2 17.3 µM | SK-MEL-5 16.5 µM | SW-620 11.3 µM | TK-10 5.43 µM | U-251 15.9 µM | UO-31 16.7 µM

COc1ccc(/C=C/C(C(=O)O)C(=O)O)cc1
inactive: CAKI-1 > 100 µM | CCRF-CEM 26.2 µM | HL-60 24.3 µM | KM12 50.7 µM | MOLT-4 25.8 µM | NCI-H226 > 100 µM | NCI-H460 > 100 µM | OVCAR-3 47.9 µM | RPMI-8226 32.8 µM | SF-268 67.5 µM | SK-MEL-28 22.5 µM | SK-MEL-2 > 100 µM | SK-MEL-5 76.6 µM | SW-620 31.5 µM | TK-10 > 100 µM | U-251 > 100 µM | UO-31 64.3 µM

Cc1cccc(C2=C/C(=C(\SS/C(C(=O)c3ccc(OCC(=O)O)c(Cl)c3Cl)=C3\C=C(c4cccc(C)c4)SS3)C(=O)c3ccc(OCC(=O)O)c(Cl)c3Cl)SS2)c1
inactive: CAKI-1 23.1 µM | CCRF-CEM 4.71 µM | HL-60 1.85 µM | KM12 23.3 µM | MOLT-4 13.6 µM | NCI-H226 12.1 µM | NCI-H460 27.2 µM | OVCAR-3 14.2 µM | RPMI-8226 16.9 µM | SF-268 10.8 µM | SK-MEL-28 18.6 µM | SK-MEL-2 19.1 µM | SK-MEL-5 15.9 µM | SW-620 18.1 µM | TK-10 27.9 µM | U-251 4.51 µM | UO-31 13 µM

Cc1c(C(=O)C/C(=N/NC(=O)C[n+]2ccccc2)C(=O)Nc2ccccc2)[n+]([O-])c2ccccc2[n+]1[O-]
inactive: CAKI-1 > 100 µM | CCRF-CEM > 100 µM | HL-60 > 100 µM | KM12 > 100 µM | MOLT-4 > 100 µM | NCI-H226 > 100 µM | NCI-H460 > 100 µM | OVCAR-3 > 100 µM | RPMI-8226 > 100 µM | SF-268 > 100 µM | SK-MEL-28 > 100 µM | SK-MEL-2 > 100 µM | SK-MEL-5 > 100 µM | SW-620 > 100 µM | TK-10 > 100 µM | U-251 > 100 µM | UO-31 > 100 µM

COC(=O)C(=O)C(C(=O)C(=O)Nc1ccc([N+](=O)[O-])cc1)c1nc2ccccc2nc1O (configuration not stated)
inactive: CAKI-1 53.2 µM | CCRF-CEM > 100 µM | HL-60 > 100 µM | KM12 57.3 µM | MOLT-4 > 100 µM | NCI-H226 > 100 µM | NCI-H460 > 100 µM | OVCAR-3 > 100 µM | RPMI-8226 > 100 µM | SF-268 > 100 µM | SK-MEL-28 > 100 µM | SK-MEL-2 > 100 µM | SK-MEL-5 43.6 µM | SW-620 > 100 µM | TK-10 > 100 µM | U-251 > 100 µM | UO-31 > 100 µM

CC1=CC2=C(C#N)C(=O)OC2(C)C(c2ccccc2)C1 (configuration not stated)
inactive: DU-145 > 100 µM | KM12 > 100 µM | MDA-MB-231 > 100 µM | MOLT-4 > 100 µM | NCI-H226 > 100 µM | NCI-H460 > 100 µM | OVCAR-3 > 100 µM | PC-3 68.5 µM | RPMI-8226 77.8 µM | SF-268 > 100 µM | SK-MEL-28 > 100 µM | SK-MEL-2 > 100 µM | SW-620 > 100 µM | TK-10 > 100 µM | U-251 > 100 µM | UO-31 > 100 µM

OC1CN(OC/C=C/c2ccccc2)CC(O)C1O (configuration not stated)
inactive: CAKI-1 > 100 µM | CCRF-CEM > 100 µM | HL-60 > 100 µM | KM12 72.3 µM | MOLT-4 > 100 µM | NCI-H226 > 100 µM | NCI-H460 63.4 µM | OVCAR-3 > 100 µM | RPMI-8226 44.3 µM | SF-268 > 100 µM | SK-MEL-28 > 100 µM | SK-MEL-2 > 100 µM | SK-MEL-5 > 100 µM | SW-620 36.1 µM | TK-10 > 100 µM | U-251 > 100 µM | UO-31 > 100 µM

Cc1cccc(C)c1NC(=O)CCCC(=O)C(C#N)c1ccc(Cl)cc1 (configuration not stated)
inactive: CAKI-1 > 100 µM | CCRF-CEM > 100 µM | HL-60 > 100 µM | KM12 > 100 µM | MOLT-4 > 100 µM | NCI-H226 > 100 µM | NCI-H460 > 100 µM | OVCAR-3 > 100 µM | RPMI-8226 > 100 µM | SF-268 > 100 µM | SK-MEL-28 > 100 µM | SK-MEL-2 > 100 µM | SK-MEL-5 > 100 µM | SW-620 > 100 µM | TK-10 > 100 µM | U-251 > 100 µM | UO-31 > 100 µM

COc1nc(OC)nc(Sc2ccc(Sc3ccc(Sc4nc(OC)nc(OC)n4)cc3)cc2)n1
inactive: CAKI-1 > 100 µM | CCRF-CEM > 100 µM | HL-60 > 100 µM | KM12 > 100 µM | MOLT-4 > 100 µM | NCI-H226 > 100 µM | NCI-H460 > 100 µM | OVCAR-3 > 100 µM | RPMI-8226 > 100 µM | SF-268 > 100 µM | SK-MEL-28 > 100 µM | SK-MEL-2 > 100 µM | SK-MEL-5 > 100 µM | SW-620 > 100 µM | TK-10 > 100 µM | U-251 > 100 µM | UO-31 > 100 µM

CCOC(=O)c1c(C)[nH]c2c1c(CN(C)C)c(O)c1nc(C)c(C)nc12
inactive: CAKI-1 28.4 µM | CCRF-CEM 10.8 µM | DU-145 26.2 µM | HL-60 8.09 µM | KM12 28.2 µM | MOLT-4 16 µM | NCI-H226 22.2 µM | NCI-H460 18.4 µM | OVCAR-3 26.5 µM | PC-3 19.5 µM | RPMI-8226 18.5 µM | SF-268 27.3 µM | SK-MEL-28 25 µM | SK-MEL-2 20.4 µM | SK-MEL-5 15 µM | SW-620 24.4 µM | TK-10 24.2 µM | U-251 24.3 µM | UO-31 29.5 µM
